The values that follow come from US11279708B2, “Amidino- and amino-rocaglates as novel translation inhibitors and anticancer agents” (priority 2019, dated 2022).

The target of this experiment is T1, eIF4A1:poly r(AG)10 (Homo sapiens, UniProt P60842).
T1 construct: His6 (N); made in house; host or cells: E. coli BL21 (DE3)
As to the kind of experiment: FP competition assay, dissociation of eIF4A from (AG)10 RNA. It counts as binding. The settings on record: in the presence of compound. On the procedure: All of these identified compounds retained similar RNA sequence binding preference for eIF4A1 with a bias for polypurine-containing substrates over polypyrimidines (FIG. 17). […] Even in the presence of ATP, which stimulates release of eIF4A from RNA, the half-life of the complexes were much longer than the rates of translation initiation (median <1 min)
Rocaglates sequester eIF4F onto RNA. RocA (2) induced clamping of eIF4A to 5′ leader regions have been proposed to inhibit translation by blocking scanning of 43S PICs. We therefore sought to test if this mechanism was sufficient to account for the translation inhibition observed with RocA, CR-1-31-B (23), and the newly identified ADRs. We supplemented translation extracts programmed with m^7G-(AG)10-FF/HCV/Ren mRNA with wild-type (wt) or rocaglate-resistant eIF4A1(F163L) recombinant protein. […] Thus, if stabilization of endogenous eIF4A in translation extracts onto mRNA is sufficient to mediate translation inhibition, then the addition of recombinant eIF4A1^F163L should not be able to rescue this inhibition. […]
FIG. 21. […] FP results of competition assays in which preformed eIF4A1:rocaglate:FAM-poly r(AG)10 complexes were incubated in the presence of poly r(AG)10 (SEQ ID NO: 39) and dissociation measured as a function of time. n=3±SD.

T1 sequence (P60842 whole entry, species assumed): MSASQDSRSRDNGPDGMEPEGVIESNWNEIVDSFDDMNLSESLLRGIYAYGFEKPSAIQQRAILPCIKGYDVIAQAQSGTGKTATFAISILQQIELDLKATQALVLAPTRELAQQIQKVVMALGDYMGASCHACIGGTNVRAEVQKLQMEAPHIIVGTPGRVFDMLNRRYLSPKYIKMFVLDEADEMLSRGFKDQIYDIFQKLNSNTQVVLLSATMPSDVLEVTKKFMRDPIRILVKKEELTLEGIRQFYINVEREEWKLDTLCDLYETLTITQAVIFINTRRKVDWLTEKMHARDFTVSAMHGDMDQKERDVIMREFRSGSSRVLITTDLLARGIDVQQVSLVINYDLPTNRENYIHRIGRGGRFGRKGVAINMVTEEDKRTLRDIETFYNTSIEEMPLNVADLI

`COc1ccc([C@@]23Oc4cc(OC)cc(OC)c4[C@]2(O)[C@H](O)[C@H](C(=O)N(C)C)[C@H]3c2ccccc2)cc1` [RocA, rocaglamide A]: the “dissociation of eIF4A from (AG)10, t1/2” value worked out at 27 min.
